For one series, the system named is HPA axis. Briefly: Case report: recovery of the HPA axis (ACTH, cortisol, DHEA levels) in a patient with secondary adrenal insufficiency. The class given is in vivo, human. From the text:
The patient is a person who developed depression for which they were placed on various psychotropic medications. They developed progressive malaise, 25 pound weight gain, muscle weakness, easing bruising, hypertension and foot stress fracture. They underwent screening DEXA bone density scan because of their personal history of fracture and a family history of advanced osteoporosis and genetically confirmed hypophosphatasia in their parent. The DEXA bone density scan disclosed a T-score of −3.4 at the lumbar spine and −3.1 at the hip. […] Further testing for secondary causes of osteoporosis included 24-hour urinary free cortisol which was markedly elevated at 499 mcg/day (range 10-80 mcg/day). Plasma ACTH level was undetectable. […], they underwent uncomplicated right laparoscopic adrenalactomy and histopathology confirmed a 3.7 cm adrenal cortical adenoma. The patient underwent a unilateral procedure, leaving one adrenal gland intact. Post-operatively the patient was placed on hydrocortisone replacement, initially at a dose of 40 mg/day given in divided doses and gradually tapered to 30 mg/day over the following several months. One year after their adrenalectomy, their hydrocortisone had been further tapered to 15 mg/day, which remained their maintenance dose. During the ensuing 6 years after their adrenalectomy, the patient generally felt unwell with symptoms of episodic nausea, headaches, lightheadedness, mood swings and generalized weakness. Quarterly measurement of serum cortisol and plasma ACTH levels (performed after holding hydrocortisone for 18 hours) consistently yielded undetectable values for both parameters. During this 6 year period, they had one pregnancy, occurring 3 years after adrenalectomy and progressing to full-term delivery of a healthy child. They had two other hospitalizations (separated by 4 years) for near-syncope, malaise, nausea and vomiting (but without hypoglycemia or hypotension). Both episodes were treated with 48-hours of intravenous stress-doses of glucocorticoids and saline, followed by improvement of their symptoms and subsequent tapering of glucocorticoids to a replacement dose of hydrocortisone 15 mg/day. The failure of the HPA axis to recover six years after adrenalectomy (despite physiological steroid dosing) prompted magnetic resonance imaging of the sella to rule out structural abnormalities of the hypothalamus, infundibulum and pituitary. This MRI was unremarkable. At that time, after a balanced discussion of risk and benefit, mifepristone 150 mg every other day was initiated and the dose of hydrocortisone 15 mg/day was continued. Over the ensuing five months, the dose of mifepristone was gradually escalated to 300 mg every other day, then 300 mg daily and finally maintained at 600 mg daily. […] The dose of hydrocortisone was lowered and ultimately stopped 8 months after initiation of mifepristone. […] The pruritis was tolerable and managed with over the counter anti-histamines. At no point during treatment with mifepristone did the patient develop signs or symptoms of adrenal insufficiency. Their menses returned 3 weeks after discontinuation of mifepristone. [table] […] Recovery of the patient's HPA axis was achieved. The patient's ACTH and cortisol levels increased in response to the drug treatment.

A short description of series [1]: Case report: tolerability and side effects of mifepristone in the patient. The format is in vivo, human. As for the experimental part:
The failure of the HPA axis to recover six years after adrenalectomy (despite physiological steroid dosing) prompted magnetic resonance imaging of the sella to rule out structural abnormalities of the hypothalamus, infundibulum and pituitary. This MRI was unremarkable. At that time, after a balanced discussion of risk and benefit, mifepristone 150 mg every other day was initiated and the dose of hydrocortisone 15 mg/day was continued. Over the ensuing five months, the dose of mifepristone was gradually escalated to 300 mg every other day, then 300 mg daily and finally maintained at 600 mg daily. […] The dose of hydrocortisone was lowered and ultimately stopped 8 months after initiation of mifepristone. […] The pruritis was tolerable and managed with over the counter anti-histamines. At no point during treatment with mifepristone did the patient develop signs or symptoms of adrenal insufficiency. Their menses returned 3 weeks after discontinuation of mifepristone.

The mark [2] stands for this setting: 6 years after adrenalectomy on hydrocortisone replacement alone (15 mg/day), after holding hydrocortisone for 18 hours.
Setting [3] is: Month 0, Mife dose 0, HC dose 15 mg (before mifepristone).
Where [4] appears, read: patient, mifepristone up to 600 mg daily.
The mark [5] stands for this setting: Month 1, Mife 150 mg TIW, HC 15 mg.
[6] abbreviates: Month 3, Mife 300 mg TIW, HC 15 mg.
Where [7] appears, read: Month 4, Mife 300 mg daily, HC 15 mg.
Where [8] appears, read: Month 5, Mife 600 mg daily, HC 15 mg.
[9] abbreviates: Month 6, Mife 600 mg daily, HC 10 mg.
Setting [10] is: Month 10, Mife 0, HC 0 (after completion of treatment).
Where [11] appears, read: Month 11, Mife 0, HC 0 (after completion of treatment).

The structures appear in SMILES notation. Where only a bound is given, the exact number is not on record here.

As for `C[C@]12CCC(=O)C=C1CC[C@@H]1[C@@H]2[C@@H](O)C[C@@]2(C)[C@H]1CC[C@]2(O)C(=O)CO` [hydrocortisone], in the series with HPA axis (setting [2]), the “plasma ACTH level, quarterly measurement” value is “undetectable” and the “serum cortisol level, quarterly measurement” value is given as “undetectable”. In the series with HPA axis (setting [3]), this compound registered an ACTH of 5 pg/mL, a Cortisol of less than 1 µg/dL and a DHEA of less than 0.05 ng/mL.

`CC#C[C@]1(O)CC[C@H]2[C@@H]3CCC4=CC(=O)CCC4=C3[C@@H](c3ccc(N(C)C)cc3)C[C@@]21C` [mifepristone, 17-β-hydrox-11-β-(4-dimethyl-aminophenyl)17-α-(1-propynyl)estra-4,9-dien-3-one]: the “signs or symptoms of adrenal insufficiency during treatment” value in series [1] (during treatment with mifepristone) is “At no point”. In addition, in series [1] (human, in vivo), the “time to return of menses after discontinuation of mifepristone” value is listed as 3 weeks. Also, the side effects entry in series [1] (setting [4]) is “amenorrhea and pruritis”. For the same compound, the tolerability result in series [1] (setting [4]) is reported as “tolerated mifepristone remarkably well”. Also, the ACTH is 15 pg/mL in the series on HPA axis (setting [5]); 18 pg/mL in the series with HPA axis (setting [6]); 60 pg/mL in the series with HPA axis (setting [7]); 78 pg/mL in the series on HPA axis (setting [8]); 173 pg/mL with HPA axis (setting [9]); 126 pg/mL in the series with HPA axis (Month 8, Mife 300 mg TIW, HC 0). In addition, the ACTH with HPA axis (setting [10]) is recorded as 26 pg/mL; in the series on HPA axis (setting [11]) it was 45 pg/mL. For the same compound, the Cortisol with HPA axis (setting [5]) was less than 1 µg/dL; in the series with HPA axis (setting [6]), less than 1 µg/dL; in the series with HPA axis (setting [7]) it was 3.6 µg/dL; in the series with HPA axis (setting [8]), 4.6 µg/dL; with HPA axis (setting [9]) it was 10.5 µg/dL; with HPA axis (Month 8, Mife 300 mg TIW, HC 0), 13.6 µg/dL. The Cortisol in the series with HPA axis (setting [10]) amounted to 13.5 µg/dL; in the series with HPA axis (setting [11]) it was 15.3 µg/dL. The DHEA is less than 0.05 ng/mL in the series with HPA axis (setting [5]); less than 0.05 ng/mL in the series on HPA axis (setting [6]); less than 0.05 ng/mL in the series with HPA axis (setting [7]); less than 0.05 ng/mL in the series on HPA axis (setting [8]); less than 0.05 ng/mL in the series on HPA axis (setting [9]); less than 0.05 ng/mL in the series on HPA axis (Month 8, Mife 300 mg TIW, HC 0). For the same compound, the DHEA was less than 0.05 ng/mL with HPA axis (setting [10]) and 0.053 ng/mL in the series on HPA axis (setting [11]). Besides, the “levels of ACTH and cortisol after completion of the treatment” value with HPA axis (after completion of hydrocortisone and mifepristone treatment) was “Normal levels of ACTH and cortisol were maintained”. In addition, the “treatment outcome of secondary adrenal insufficiency” value with HPA axis (co-administration of hydrocortisone and mifepristone) was “successfully treated”. For the same compound, the “recovery of the HPA axis” value in the series with HPA axis (mifepristone escalated 150 mg every other day to 600 mg daily, with hydrocortisone 15 mg/day) is on record as “rapid recovery of the HPA axis was noted”. Besides, in the series on HPA axis (with hydrocortisone 15 mg/day), the “time to rise in ACTH into the supra-normal range after starting mifepristone” value was determined as 4 months.

(Values after US12691127B2, “Use of glucocorticoid receptor antagonists in combination with glucocorticoids to treat adrenal insufficiency” (Corcept Therapeutics, Inc., priority 2015, dated 2026).)
